Here are results for seven molecules from PubChem BioAssay AID2060611 (Molecular Pharmacology Branch, DTP, NCI, 2025).

Several values for one entry are separate records, joined by “and”; a condition that tells them apart may be missing. Identical values can stand only once.

This test concerns 628569-122-R-J1-PDC complex spheroid viability. As to the kind of experiment: Anticancer human tumor 628569-122-R-J1-PDC patient-derived head and neck squamous carcinoma cell line growth inhibition [CLK]. The note with it: for viability, T/C: stronger effect = lower value. Put shortly: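 Multi-cell-type spheroids combined patient-derived tumor cells with HUVEC endothelial cells and human mesenchymal stem cells. Paired agents were dosed in half-log steps down from about clinical Cmax, or from 10 microM where Cmax was unknown.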

Where [1] appears, read: curve of first compound, second compound 0.0316 µM.
Where [2] appears, read: curve of first compound, second compound 0.1 µM.
Setting [3] is: curve of first compound, second compound 0.316 µM.
[4] abbreviates: curve of first compound, second compound 1 µM.
Setting [5] is: curve of first compound, second compound 3.16 µM.
The mark [6] stands for this setting: curve of first compound, second compound 10 µM.
[7] abbreviates: second compound 0.0316 µM, first compound 0.0316 µM.
The mark [8] stands for this setting: second compound 0.0316 µM, first compound 0.1 µM.
Where [9] appears, read: second compound 0.0316 µM, first compound 0.316 µM.
Setting [10] is: second compound 0.0316 µM, first compound 1 µM.
[11] abbreviates: second compound 0.1 µM, first compound 0.0316 µM.
Setting [12] is: second compound 0.1 µM, first compound 0.1 µM.
The mark [13] stands for this setting: second compound 0.1 µM, first compound 0.316 µM.
[14] abbreviates: second compound 0.1 µM, first compound 1 µM.
Where [15] appears, read: second compound 0.316 µM, first compound 0.0316 µM.
Setting [16] is: second compound 0.316 µM, first compound 0.1 µM.
Where [17] appears, read: second compound 0.316 µM, first compound 0.316 µM.
Where [18] appears, read: second compound 0.316 µM, first compound 1 µM.
Setting [19] is: second compound 1 µM, first compound 0.0316 µM.
The mark [20] stands for this setting: second compound 1 µM, first compound 0.1 µM.
Where [21] appears, read: second compound 1 µM, first compound 0.316 µM.
The mark [22] stands for this setting: second compound 1 µM, first compound 1 µM.
The mark [23] stands for this setting: second compound 3.16 µM, first compound 0.0316 µM.
Setting [24] is: second compound 3.16 µM, first compound 0.1 µM.
[25] abbreviates: second compound 3.16 µM, first compound 0.316 µM.
Where [26] appears, read: second compound 3.16 µM, first compound 1 µM.
[27] abbreviates: second compound 10 µM, first compound 0.0316 µM.
Setting [28] is: second compound 10 µM, first compound 0.1 µM.
Where [29] appears, read: second compound 10 µM, first compound 0.316 µM.
The mark [30] stands for this setting: second compound 10 µM, first compound 1 µM.
The mark [31] stands for this setting: second compound 0.0316 µM, first compound 3.16 µM.
Setting [32] is: second compound 0.0316 µM, first compound 10 µM.
[33] abbreviates: second compound 0.1 µM, first compound 3.16 µM.
Setting [34] is: second compound 0.1 µM, first compound 10 µM.
Where [35] appears, read: second compound 0.316 µM, first compound 3.16 µM.
The mark [36] stands for this setting: second compound 0.316 µM, first compound 10 µM.
[37] abbreviates: second compound 1 µM, first compound 3.16 µM.
Setting [38] is: second compound 1 µM, first compound 10 µM.
The mark [39] stands for this setting: second compound 3.16 µM, first compound 3.16 µM.
Where [40] appears, read: second compound 3.16 µM, first compound 10 µM.
[41] abbreviates: second compound 10 µM, first compound 3.16 µM.
Where [42] appears, read: second compound 10 µM, first compound 10 µM.
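Also: spheroids exposed to agents for seven days before readout.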
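For viability, T/C in this document: 100% = DMSO vehicle control viability.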

A word on the IC50: it is the concentration at which inhibition is half-maximal. The viability, T/C is the ratio of treated to control. As for `COc1c(OCCCN2CCOCC2)ccc2c3n(c(=NC(=O)c4cnc(N)nc4)nc12)CCN3` + CN1CCN(c2cc(C(=O)Nc3cc4cc(-c5cnn(C)c5)ccc4cn3)ccn2)CC1, the IC50 was 0.0211 µM under setting [1]; 0.009 µM under setting [2]; < 0.00316 µM under setting [3]; < 0.00316 µM under setting [4]; < 0.00316 µM under setting [5]; < 0.00316 µM under setting [6]. For the same molecule, the viability, T/C (second compound 0.0316 µM, first compound 0.00316 µM) is 77%; the viability, T/C (second compound 0.0316 µM, first compound 0.01 µM) is 67.5%; the viability, T/C under setting [7] is 34.4%; the viability, T/C under setting [8] was 34.8%; the viability, T/C under setting [9] is 18.3%; the viability, T/C under setting [10] was 7.77%. Also, the viability, T/C runs as follows: (second compound 0.1 µM, first compound 0.00316 µM) 54.5%; (second compound 0.1 µM, first compound 0.01 µM) 51.3%; under setting [11], 34.6%; under setting [12], 16.8%; under setting [13], 13.2%; under setting [14], 2.93%. In addition, the viability, T/C was 35.2% (second compound 0.316 µM, first compound 0.00316 µM); 21.1% (second compound 0.316 µM, first compound 0.01 µM); 11.8% under setting [15]; 9.4% under setting [16]; 5.28% under setting [17]; 1.37% under setting [18]. Moreover, the viability, T/C reads like this: (second compound 1 µM, first compound 0.00316 µM) 9.4%; (second compound 1 µM, first compound 0.01 µM) 8.16%; under setting [19], 8.92%; under setting [20], 6.58%; under setting [21], 5.37%; under setting [22], 4.98%. Besides, the viability, T/C reads like this: (second compound 3.16 µM, first compound 0.00316 µM) 5.32%; (second compound 3.16 µM, first compound 0.01 µM) 5.77%; under setting [23], 8.53%; under setting [24], 6.16%; under setting [25], 7.48%; under setting [26], 4.29%. The viability, T/C is 7.43% (second compound 10 µM, first compound 0.00316 µM); 2.01% (second compound 10 µM, first compound 0.01 µM); 3.89% under setting [27]; 2.57% under setting [28]; 3.58% under setting [29]; 2.62% under setting [30].
On to `CCCS(=O)(=O)Nc1ccc(F)c(C(=O)c2c[nH]c3ncc(-c4ccc(Cl)cc4)cc23)c1F`, for which the viability, T/C is 107% and 87% (compound 0.0316 µM); 88.2% and 74.5% (compound 0.1 µM); 94.3% and 70.7% (compound 0.316 µM); 108% and 71.2% (compound 1 µM); 104% and 77.5% (compound 3.16 µM); 83.7% and 70.3% (compound 10 µM). Besides, the IC50 (curve of compound) was > 10 µM.
For the molecule `CCCS(=O)(=O)Nc1ccc(F)c(C(=O)c2c[nH]c3ncc(-c4ccc(Cl)cc4)cc23)c1F` + CNC(=O)c1ccc(Nc2nc(OC3CCCC3)c3c(-c4ccc5nc(C)oc5c4)c[nH]c3n2)c(OC)c1, the IC50 under setting [1] was > 10 µM; the IC50 under setting [2] was > 10 µM; the IC50 under setting [3] is > 10 µM; the 50% inhibitory concentration (IC50) under setting [4] is < 0.0316 µM; the IC50 under setting [5] was < 0.0316 µM; the IC50 under setting [6] was < 0.0316 µM. In addition, the viability, T/C runs as follows: under setting [7], 85.7%; under setting [8], 86.2%; under setting [9], 72.4%; under setting [10], 90.2%; under setting [31], 91%; under setting [32], 73.5%. In addition, the viability, T/C by setting is: under setting [11], 58%; under setting [12], 63.7%; under setting [13], 54%; under setting [14], 57.4%; under setting [33], 62%; under setting [34], 68.4%. For the same molecule, the viability, T/C under setting [15] is 51.7%; the viability, T/C under setting [16] was 49.9%; the viability, T/C under setting [17] is 49.7%; the viability, T/C under setting [18] was 64.8%; the viability, T/C under setting [35] is 49.6%; the viability, T/C under setting [36] is 56%. Moreover, the viability, T/C under setting [19] is 48%; the viability, T/C under setting [20] was 42.3%; the viability, T/C under setting [21] is 43.4%; the viability, T/C under setting [22] is 45.7%; the viability, T/C under setting [37] was 52.3%; the viability, T/C under setting [38] was 50.9%. The viability, T/C is 43.9% under setting [23]; 42.1% under setting [24]; 46.1% under setting [25]; 44.2% under setting [26]; 53% under setting [39]; 45.7% under setting [40]. The viability, T/C by setting is: under setting [27], 39.7%; under setting [28], 39.1%; under setting [29], 40.8%; under setting [30], 34.7%; under setting [41], 50.4%; under setting [42], 51.1%.
Take `C=CC(=O)Nc1cc(Nc2nccc(-c3cn(C)c4ccccc34)n2)c(OC)cc1N(C)CCN(C)C`: the viability, T/C was 81.8% and 77.8% (compound 0.000949 µM); 105% and 86.5% (compound 0.003 µM); 92.6% and 78.3% (compound 0.00949 µM); 73.7% and 73.6% (compound 0.03 µM); 98.9% and 71.4% (compound 0.0949 µM); 71.7% and 55.5% (compound 0.3 µM). Further, for the setting “curve of compound”, the half-maximal inhibitory concentration (IC50) was > 0.3 µM.
For the molecule `O=C(c1cc(Cc2n[nH]c(=O)c3ccccc23)ccc1F)N1CCN(C(=O)C2CC2)CC1` + CN1CCN(c2cc(C(=O)Nc3cc4cc(-c5cnn(C)c5)ccc4cn3)ccn2)CC1, the IC50 under setting [1] came out at 6.76 µM; the half-maximal inhibitory concentration (IC50) under setting [2] amounted to 1.21 µM; the IC50 under setting [3] is < 0.0316 µM; the concentration for half-maximal inhibition (IC50) under setting [4] was < 0.0316 µM; the half-inhibitory concentration (IC50) under setting [5] is < 0.0316 µM; the IC50 under setting [6] was < 0.0316 µM. In addition, the viability, T/C under setting [7] was 91.9%; the viability, T/C under setting [8] was 89.5%; the viability, T/C under setting [9] is 91.2%; the viability, T/C under setting [10] is 83.3%; the viability, T/C under setting [31] is 56.8%; the viability, T/C under setting [32] is 46.5%. Also, the viability, T/C was 55.8% under setting [11]; 56.6% under setting [12]; 61.9% under setting [13]; 49.8% under setting [14]; 41.5% under setting [33]; 33.7% under setting [34]. For the same molecule, the viability, T/C by setting is: under setting [15], 34.6%; under setting [16], 33.6%; under setting [17], 33.9%; under setting [18], 27.7%; under setting [35], 16.8%; under setting [36], 14.2%. Also, the viability, T/C under setting [19] is 9.74%; the viability, T/C under setting [20] is 5.97%; the viability, T/C under setting [21] was 9.24%; the viability, T/C under setting [22] is 5%; the viability, T/C under setting [37] was 8.27%; the viability, T/C under setting [38] was 8.76%. In addition, the viability, T/C is 6.83% under setting [23]; 7.39% under setting [24]; 8.5% under setting [25]; 5.51% under setting [26]; 6.5% under setting [39]; 8.04% under setting [40]. In addition, the viability, T/C under setting [27] was 3.42%; the viability, T/C under setting [28] is 3.07%; the viability, T/C under setting [29] was 1.85%; the viability, T/C under setting [30] was 3.59%; the viability, T/C under setting [41] is 3.68%; the viability, T/C under setting [42] is 2.67%.
As to `COc1ccc([C@@H](O)c2cc(-c3ncnc4cc(N5CCOCC5)ccc34)c(F)cc2Cl)nn1`, the viability, T/C (compound 0.0316 µM) is 79.4% and 79.8%; the viability, T/C (compound 0.1 µM) is 92.1% and 72.9%; the viability, T/C (compound 0.316 µM) is 69.5% and 75.5%; the viability, T/C (compound 1 µM) was 51% and 57.1%; the viability, T/C (compound 3.16 µM) is 41.2% and 39.4%; the viability, T/C (compound 10 µM) is 21.8% and 31.3%. Besides, the concentration for half-maximal inhibition (IC50) (curve of compound) is 1.35 µM and 1.61 µM.
Consider `CCc1c2c(nc3ccc(O)cc13)-c1cc3c(c(=O)n1C2)COC(=O)[C@]3(O)CC`, for which the viability, T/C (compound 0.00316 µM) was 69.5% and 53%; the viability, T/C (compound 0.01 µM) was 50.6% and 38%; the viability, T/C (compound 0.0316 µM) is 50.3% and 45.5%; the viability, T/C (compound 0.1 µM) is 41.7% and 39%; the viability, T/C (compound 0.316 µM) was 35.8% and 39%; the viability, T/C (compound 1 µM) was 8.79% and 15.5%.
